{"source": "patent US20100004253A1", "about": "“BIOMARKERS OF TARGET MODULATION, EFFICACY, DIAGNOSIS AND/OR PROGNOSIS FOR RAF INHIBITORS” (Novartis AG, priority 2006, published 2010)", "key": {"HCT116 xenograft": {"test_system": "HCT116 xenograft", "assay": "K-Ras driven xenograft model", "assay_type": "in vivo", "from_the_text": "[…]. […] […]."}, "SW620": {"test_system": "SW620", "settings": "SW620, K-Ras cell line"}, "HT29 xenograft": {"test_system": "HT29 xenograft", "assay": "Mutant B-Raf xenograft model", "assay_type": "in vivo"}, "COLO205": {"test_system": "COLO205", "settings": "COLO205, mutant B-Raf cell line"}, "[1]": {"test_system": "MEK target phosphorylation and signaling molecules downstream from Raf (BIM, Cyclin D1, p27Kip, pAKT)", "settings": "preclinical models"}, "[2]": {"test_system": "A375M melanoma xenograft tumors", "assay": "mRNA microarray profiling of A375M xenograft tumors", "assay_type": "in vivo, mice", "settings": "100 mg/kg orally every other day; 783 probesets; Table IX"}, "MALME-3M": {"test_system": "MALME-3M", "settings": "mutant B-Raf cell line"}, "A2058": {"test_system": "A2058", "settings": "A2058, mutant B-Raf cell line"}, "SKMEL28": {"test_system": "SKMEL28", "settings": "SKMEL28, mutant B-Raf cell line"}, "MEXF276 xenograft": {"test_system": "MEXF276 xenograft", "assay": "Mutant B-Raf xenograft model", "assay_type": "in vivo"}, "SKMEL2": {"test_system": "SKMEL2", "settings": "SKMEL2, N-Ras cell line"}, "SKMEL31": {"test_system": "SKMEL31", "settings": "SKMEL31, mutant B-Raf cell line"}, "G361": {"test_system": "G361", "settings": "G361, mutant B-Raf cell line"}, "A375M xenograft": {"test_system": "A375M xenograft", "assay": "Mutant B-Raf xenograft model", "assay_type": "in vivo"}}}
{"smiles": "Cn1c(Nc2ccc(C(F)(F)F)cc2)nc2cc(Oc3ccnc(-c4ncc(C(F)(F)F)[nH]4)c3)ccc21", "note": "[CHIR-265, {1-Methyl-5-[2-(5-trifluoromethyl-1H-imidazol-2-yl)-pyridin-4-yloxy]-1H benzoimidazol-2-yl}-(4-trifluoromethyl-phenyl)-amine]", "values": [{"measurement": "effect on tumor", "setting": "HCT116 xenograft", "result": "tumor growth inhibition"}, {"measurement": "inhibition of the Raf pathway", "setting": "SW620", "result": "inhibition of the Raf pathway"}, {"measurement": "effect on tumor", "setting": "HT29 xenograft", "result": "tumor regression"}, {"measurement": "inhibition of the Raf pathway", "setting": "COLO205", "result": "inhibition of the Raf pathway"}, {"measurement": "inhibition of MEK target phosphorylation and signaling molecules downstream from Raf in the MAPK pathway", "setting": "[1]", "result": "dose and time dependent inhibition"}, {"measurement": "number of genes significantly differential, alternate analysis method (six queries, p<0.005)", "setting": "[2]", "result": 609, "unit": "genes"}, {"measurement": "inhibition of the Raf pathway", "setting": "MALME-3M", "result": "inhibition of the Raf pathway"}, {"measurement": "inhibition of the Raf pathway", "setting": "A2058", "result": "inhibition of the Raf pathway"}, {"measurement": "inhibition of the Raf pathway", "setting": "SKMEL28", "result": "inhibition of the Raf pathway"}, {"measurement": "effect on tumor", "setting": "MEXF276 xenograft", "result": "tumor regression"}, {"measurement": "inhibition of the Raf pathway", "setting": "SKMEL2", "result": "inhibition of the Raf pathway"}, {"measurement": "inhibition of the Raf pathway", "setting": "SKMEL31", "result": "inhibition of the Raf pathway"}, {"measurement": "inhibition of the Raf pathway", "setting": "G361", "result": "inhibition of the Raf pathway"}, {"measurement": "effect on tumor", "setting": "A375M xenograft", "result": "tumor regression"}]}
